Patent US20220324835A1 (Nurix Therapeutics, Inc., priority 2018, published 2022)

Experiments:
T-cell [1] = test: IL-2 secretion from T-cells co-stimulated with anti-CD3 and anti-CD28 antibody (Biological Example 2); type: cell-based, human; details: Homo sapiens, T-cell, fold change over baseline, primary human total T-cells, read-out: IL-2 secretion Anti-CD3/Anti-CD28 stimulation; for fold induction at 0.3 µM: 0.3 μM Cbl-b inhibitor; for fold induction at 1 µM: 1 μM Cbl-b inhibitor; for fold induction at 4 µM: 4 μM Cbl-b inhibitor
Text: (§1) Methods for experimentally determining increased T-cell activation, increased T-cell proliferation, decreased T-cell exhaustion, and/or decreased T-cell tolerance are well known in the art.
(§2) Modulation of activity of an immune cell, such as a T-cell, a B cell or a NK cell can be measured by determining a baseline value for a parameter of interest (e.g., cytokine secretion). […] A reference value then is obtained for T-cell activation after contacting or administering said Cbl-b inhibitor. The reference value is compared to the baseline value in order to determine the amount of T-cell activation due to contact or administration of the Cbl-b inhibitor or composition thereof. […] Immune cell activation can be assessed by measuring biological markers of activation such as increased cytokine secretion, increased cell surface expression of activation markers (e.g., cell surface markers), or increased phosphorylation of proteins in a downstream signaling pathway. The fold over baseline value that indicates immune cell activation can be determined for the parameter being tested and the conditions under which the immune cell were treated. For example, for measuring T-cell activation, a baseline value can be obtained from T-cells stimulated with anti-CD3 antibody in combination with anti-CD28 antibody, wherein the cells are not incubated with a Cbl-b inhibitor. […] A positive response for immune cell activation can then be determined by the obtained reference value. […]

T-cell [2] = test: IL-2 secretion from T-cells stimulated with anti-CD3 antibody alone (Biological Example 2); type: cell-based, human; details: T-cell, fold change over baseline, primary human total T-cells, read-out: IL-2 secretion Anti-CD3 stimulation; for fold induction at 1 µM: 1 μM Cbl-b inhibitor; for fold induction at 8 µM: 8 μM Cbl-b inhibitor
Text: as §1
(§3) Modulation of activity of an immune cell, such as a T-cell, a B cell or a NK cell can be measured by determining a baseline value for a parameter of interest (e.g., cytokine secretion). […] A reference value then is obtained for T-cell activation after contacting or administering said Cbl-b inhibitor. The reference value is compared to the baseline value in order to determine the amount of T-cell activation due to contact or administration of the Cbl-b inhibitor or composition thereof. […] Immune cell activation can be assessed by measuring biological markers of activation such as increased cytokine secretion, increased cell surface expression of activation markers (e.g., cell surface markers), or increased phosphorylation of proteins in a downstream signaling pathway. The fold over baseline value that indicates immune cell activation can be determined for the parameter being tested and the conditions under which the immune cell were treated. For example, for measuring T-cell activation, a baseline value can be obtained from T-cells stimulated with anti-CD3 antibody in combination with anti-CD28 antibody, wherein the cells are not incubated with a Cbl-b inhibitor. […] A positive response for immune cell activation can then be determined by the obtained reference value.
(§4) In some embodiments, a baseline value can be obtained from T-cells stimulated with anti-CD3 antibody alone, wherein the cells are not incubated with a Cbl-b inhibitor. In some embodiments, a positive response for T-cell activation as measured by cytokine secretion (e.g., IL-2 secretion) by T-cells stimulated with anti-CD3 antibody alone in the presence of a Cbl-b inhibitor is at least 0.1-fold over the baseline value for cytokine secretion (e.g., IL-2 secretion) obtained from T-cells stimulated with anti-CD3 antibody alone in the absence of a Cbl-b inhibitor. In some embodiments, a positive response for T-cell activation as measured by surface marker expression (e.g., CD25 surface marker staining) by T-cells stimulated with anti-CD3 antibody alone in the presence of a Cbl-b inhibitor is at least 0.6-fold over the baseline value for surface marker expression (e.g., CD25 surface marker staining) obtained from T-cells stimulated with anti-CD3 antibody alone in the absence of a Cbl-b inhibitor.

Cbl-b [3] = molecular target: T1, Cbl-b (Homo sapiens, UniProt Q13191); test: Cbl-b activity assay (Cbl-b inhibition assay), TR-FRET of Cbl-b interaction with UbcH5B-Ub; type: biochemical; details: assay buffer with 100 mM NaCl, 60 nM Src kinase; read-out: Cbl-b activity IC50
T1 sequence (Q13191 36-427): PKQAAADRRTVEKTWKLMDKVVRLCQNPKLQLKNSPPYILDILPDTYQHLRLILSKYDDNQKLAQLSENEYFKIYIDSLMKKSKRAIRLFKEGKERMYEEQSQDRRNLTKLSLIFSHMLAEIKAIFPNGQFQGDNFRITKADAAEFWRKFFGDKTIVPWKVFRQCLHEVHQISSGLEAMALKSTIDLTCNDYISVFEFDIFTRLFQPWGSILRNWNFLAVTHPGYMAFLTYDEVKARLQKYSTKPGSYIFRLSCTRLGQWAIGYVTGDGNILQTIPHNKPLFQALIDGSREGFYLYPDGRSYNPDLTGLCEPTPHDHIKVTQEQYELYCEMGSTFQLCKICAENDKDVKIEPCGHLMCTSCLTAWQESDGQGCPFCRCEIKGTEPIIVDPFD
Method in brief: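 TR-FRET readout of Cbl-b binding to Bodipy-fluorescein N-terminally labeled Ub conjugated to UbcH5B C85K, measured with compound present. After compound incubation, 60 nM Src kinase with 1 mM ATP and 5 mM MgCl2 (final) was added for 1.5 h, then a further 1 h incubation; asterisked values used 50 mM NaCl buffer and 30 nM Src.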

T-cell [4] = test: CD25 cell surface staining on T-cells co-stimulated with anti-CD3 and anti-CD28 antibody (Biological Example 2); type: cell-based, human; details: Homo sapiens, T-cell, fold change over baseline, primary human total T-cells, read-out: CD25 staining Anti-CD3/Anti-CD28 stimulation; for fold induction at 0.3 µM: 0.3 μM Cbl-b inhibitor; for fold induction at 1 µM: 1 μM Cbl-b inhibitor; for fold induction at 4 µM: 4 μM Cbl-b inhibitor
Text: as §1, §2

T-cell [5] = test: CD25 cell surface staining on T-cells stimulated with anti-CD3 antibody alone (Biological Example 2); type: cell-based, human; details: T-cell, fold change over baseline, primary human total T-cells, read-out: CD25 staining Anti-CD3 stimulation; for fold induction at 1 µM: 1 μM Cbl-b inhibitor; for fold induction at 8 µM: 8 μM Cbl-b inhibitor
Text: as §1, §3, §4

Cbl-b [6] = molecular target: T1, Cbl-b; test: Cbl-b inhibition assay (Cbl-b activity assay, FRET, Biological Example 1; 100 mM NaCl, 60 nM Src kinase); type: biochemical; details: upper bound stated in text lists; read-out: IC50 values in the Cbl-b inhibition assay of Biological Example 1
Method in brief: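 Binding-based Cbl-b activity assay. Src-phosphorylated, N-terminally biotin-Avi-tagged Cbl-b recruits labelled UbcH5B-Ub, and proximity to streptavidin-terbium yields FRET.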

Structure (SMILES) | fold induction at 0.3 µM (T-cell [1]) | fold induction at 1 µM (T-cell [1]) | fold induction at 4 µM (T-cell [1]) | fold induction at 1 µM (T-cell [2]) | fold induction at 8 µM (T-cell [2]) | IC50 (Cbl-b [3]) [nM] | fold induction at 0.3 µM (T-cell [4]) | fold induction at 1 µM (T-cell [4]) | fold induction at 4 µM (T-cell [4]) | fold induction at 1 µM (T-cell [5]) | fold induction at 8 µM (T-cell [5]) | IC50 (Cbl-b [6]) [nM]
C[C@H](Cc1nncn1C)c1cccc(NC(=O)c2cc(C(F)(F)F)n[nH]2)c1 [Compound 314, (R)-N-(3-(1-(4-Methyl-4H-1,2,4-triazol-3-yl)propan-2-yl)phenyl)-3-(trifluoromethyl)-1H-pyrazole-5-carboxamide] | 1.01 to 2.5 | 1.01 to 2.5 | 1.01 to 2.5 | 0.051 to 0.1 | 0.101 to 0.15 | 301 to 1000 | 1.01 to 1.3 | 1.01 to 1.3 | 1.01 to 1.3 | 0.601 to 0.8 | 0.601 to 0.8 | –
C[C@H](Cc1nncn1C)c1cccc(NC(=O)c2coc(C(F)(F)F)n2)c1 [Compound 315, (R)-N-(3-(1-(4-Methyl-4H-1,2,4-triazol-3-yl)propan-2-yl)phenyl)-2-(trifluoromethyl)oxazole-4-carboxamide] | < 1 | 1.01 to 2.5 | 1.01 to 2.5 | 0.051 to 0.1 | 0.101 to 0.15 | 301 to 1000 | 1.01 to 1.3 | 1.01 to 1.3 | 1.01 to 1.3 | 0.601 to 0.8 | 0.801 to 1 | –
C[C@H](Cc1nncn1C)c1cccc(NC(=O)c2ccn3nccc3n2)c1 [Compound 316, (R)-N-(3-(1-(4-Methyl-4H-1,2,4-triazol-3-yl)propan-2-yl)phenyl)pyrazolo[1,5-a]pyrimidine-5-carboxamide] | 1.01 to 2.5 | 1.01 to 2.5 | 2.51 to 5 | 0.051 to 0.1 | 0.151 to 0.2 | 301 to 1000 | 1.01 to 1.3 | 1.01 to 1.3 | 1.01 to 1.3 | 0.601 to 0.8 | > 1 | –
C[C@H](Cc1nncn1C)c1cccc(NC(=O)c2cc3cccn3cn2)c1 [Compound 317, (R)-N-(3-(1-(4-Methyl-4H-1,2,4-triazol-3-yl)propan-2-yl)phenyl)pyrrolo[1,2-c]pyrimidine-3-carboxamide] | 1.01 to 2.5 | 1.01 to 2.5 | 1.01 to 2.5 | 0.051 to 0.1 | 0.101 to 0.15 | 301 to 1000 | 1.01 to 1.3 | 1.01 to 1.3 | 1.01 to 1.3 | 0.601 to 0.8 | 0.801 to 1 | –
C[C@H](Cc1nncn1C)c1cccc(NC(=O)c2cn3ccnc3cn2)c1 [Compound 318, (R)-N-(3-(1-(4-Methyl-4H-1,2,4-triazol-3-yl)propan-2-yl)phenyl)imidazo[1,2-a]pyrazine-6-carboxamide] | 1.01 to 2.5 | 1.01 to 2.5 | 1.01 to 2.5 | 0.051 to 0.1 | 0.101 to 0.15 | 301 to 1000 | < 1 | 1.01 to 1.3 | 1.01 to 1.3 | 0.601 to 0.8 | 0.801 to 1 | –
C[C@@H](Cc1nncn1C)c1cccc(NC(=O)c2cc(C3CC3)cc(C(F)(F)F)n2)c1 [Compound 322, (S)-4-Cyclopropyl-N-(3-(1-(4-methyl-4H-1,2,4-triazol-3-yl)propan-2-yl)phenyl)-6-(trifluoromethyl)picolinamide] | 1.01 to 2.5 | 1.01 to 2.5 | 1.01 to 2.5 | 0.051 to 0.1 | 0.101 to 0.15 | 301 to 1000 | 1.01 to 1.3 | 1.01 to 1.3 | 1.01 to 1.3 | 0.601 to 0.8 | 0.601 to 0.8 | –
Cn1cnnc1CC1(c2cccc(N3Cc4c(cc(CN5CCOC(CF)C5)cc4C(F)(F)F)C3=O)c2)COC1 (stereo not drawn) [Example 714, 6-((2-(fluoromethyl)morpholino)methyl)-2-(3-(3-((4-methyl-4H-1,2,4-triazol-3-yl)methyl)oxetan-3-yl)phenyl)-4-(trifluoromethyl)isoindolin-1-one] | – | – | – | – | – | < 100 | – | – | – | – | – | ≤ 100
Cn1cnnc1CC1(c2cccc(N3Cc4c(cc(CN5CCOC(CC(F)(F)F)C5)cc4C(F)(F)F)C3=O)c2)COC1 (stereo not drawn) [Example 715, 2-(3-(3-((4-methyl-4H-1,2,4-triazol-3-yl)methyl)oxetan-3-yl)phenyl)-6-((2-(2,2,2-trifluoroethyl)morpholino)methyl)-4-(trifluoromethyl)isoindolin-1-one] | – | – | – | – | – | < 100 | – | – | – | – | – | ≤ 100
CC(C)C1CN(Cc2cc3c(c(C(F)(F)F)c2)CN(c2cccc(C4(Cc5nncn5C)COC4)c2)C3=O)CCO1 (stereo not drawn) [Example 716, 6-[(2-isopropylmorpholin-4-yl)methyl]-2-(3-{3-[(4-methyl-1,2,4-triazol-3-yl)methyl]oxetan-3-yl}phenyl)-4-(trifluoromethyl)-3H-isoindol-1-one] | – | – | – | – | – | < 100 | – | – | – | – | – | ≤ 100
Cn1cnnc1CC1(c2cccc(N3Cc4c(cc(CN5CCOC(CCO)C5)cc4C(F)(F)F)C3=O)c2)COC1 (stereo not drawn) [Example 717, 6-{[2-(2-hydroxyethyl)morpholin-4-yl]methyl}-2-(3-{3-[(4-methyl-1,2,4-triazol-3-yl)methyl]oxetan-3-yl}phenyl)-4-(trifluoromethyl)-3H-isoindol-1-one] | – | – | – | – | – | < 100 | – | – | – | – | – | ≤ 100
Cn1cnnc1CC1(c2cccc(N3Cc4c(cc(CN5CCOC(C6CC6)C5)cc4C(F)(F)F)C3=O)c2)COC1 (stereo not drawn) [Example 718, 6-[(2-cyclopropylmorpholin-4-yl)methyl]-2-(3-{3-[(4-methyl-1,2,4-triazol-3-yl)methyl]oxetan-3-yl}phenyl)-4-(trifluoromethyl)-3H-isoindol-1-one] | – | – | – | – | – | < 100 | – | – | – | – | – | ≤ 100
Cn1cnnc1CC1(c2cccc(N3Cc4c(cc(CN5CCOC(C6CCC6)C5)cc4C(F)(F)F)C3=O)c2)COC1 (stereo not drawn) [Example 719, 6-[(2-cyclobutylmorpholin-4-yl)methyl]-2-(3-{3-[(4-methyl-1,2,4-triazol-3-yl)methyl]oxetan-3-yl}phenyl)-4-(trifluoromethyl)-3H-isoindol-1-one] | – | – | – | – | – | < 100 | – | – | – | – | – | ≤ 100
